The values below come from US5248796A, “Taxol derivatives” (Bristol-Myers Squibb Company, priority 1992, dated 1993).

Assay [1] relates to HCT-116 human colon carcinoma cells. Kind of assay: In vitro cytotoxicity, XTT assay, HCT-116 human colon carcinoma cells. The assay is classed as cell-based. Conditions: read-out: IC50 HCT-116. For orientation: Tetrazolium dyes change colour on reduction, which living cells bring about.
In assay [2] the test system is HCT-116/VM46 human colon carcinoma cells. Kind of assay: In vitro cytotoxicity, XTT assay, HCT-116/VM46 cells (teniposide-resistant, multidrug resistance phenotype). It counts as cell-based. To be noted: for fold resistance relative to HCT116 cells: 4320 min; for IC50: Homo sapiens, read-out: IC50 HCT-116/VM46.
The conditions of assay [3]: background statement; cited from earlier work.
The mark [4] stands for this setting: HCT-116/VM46 relative to HCT116, value in parenthesis.
The mark [5] stands for this setting: HCT-116/VM46, teniposide-resistant, multidrug resistance phenotype, XTT, 72 hours, 37° C.

SMILES strings stand for the structures. Where two headings read alike, the source gives them in different places.

For `C=C1C2=CC(=O)[C@]3(C)[C@@H](OC(=O)C(F)Cl)C[C@H]4OC[C@@]4(OC(C)=O)[C@H]3[C@H](OC(=O)c3ccccc3)[C@](O)(C[C@@H]1OC(=O)[C@H](O)[C@@H](NC(=O)c1ccccc1)c1ccccc1)C2(C)C` (some centres unmarked) [Example 3, 7-O-chlorofluoroacetyl-10-desacetoxy-11,12-dihydrotaxol-10,12(18)-diene], the IC50 in assay [1] (HCT-116, 72 h) came to 38 nM.
Still for that read-out and setting: the value for `CC(=O)O[C@@]12CO[C@@H]1C[C@H](OC(=O)C(F)Cl)[C@@]1(C)C(=O)CC3=C(C)[C@@H](OC(=O)[C@H](O)[C@@H](NC(=O)c4ccccc4)c4ccccc4)C[C@@](O)([C@@H](OC(=O)c4ccccc4)[C@H]21)C3(C)C` (some centres unmarked) [Example 4, 7-O-chlorofluoroacetyl-10-desacetoxytaxol] was 8 nM.
The same measure, in the same setting: the value for `C=C1C2=CC(=O)[C@@]3(C)[C@H]([C@H](OC(=O)c4ccccc4)[C@](O)(C[C@@H]1OC(=O)[C@H](O)[C@@H](NC(=O)c1ccccc1)c1ccccc1)C2(C)C)[C@]1(OC(C)=O)CO[C@@H]1C[C@@H]3O` [Example 9, 10-Desacetoxy-11,12-dihydrotaxol-10,12(18)-diene] was 38 nM.
Consider `CC(=O)O[C@@]12CO[C@@H]1C[C@H](O)[C@@]1(C)C(=O)CC3=C(C)[C@@H](OC(=O)[C@H](O)[C@@H](NC(=O)c4ccccc4)c4ccccc4)C[C@@](O)([C@@H](OC(=O)c4ccccc4)[C@H]21)C3(C)C` [Example 10, 10-Desacetoxytaxol], for which, in assay [2] (setting [4]), the “fold resistance relative to HCT116 cells” value amounted to 153 fold. For the same compound, the IC50 amounted to 1220 nM in assay [2] (setting [5]) and 8 nM in assay [1] (HCT-116, XTT, 72 hours, 37° C.).
On the same counts, the results for `CC(=O)O[C@@]12CO[C@@H]1C[C@@H](O)[C@@]1(C)C(=O)CC3=C(C)[C@@H](OC(=O)[C@H](O)[C@@H](NC(=O)c4ccccc4)c4ccccc4)C[C@@](O)([C@@H](OC(=O)c4ccccc4)[C@H]21)C3(C)C` [Example 13, 7-Epi-10-desacetoxytaxol] are less than 32 fold, 3090 nM and more than 98 nM.
As for `C=C1C2=CC(=O)[C@]3(C)[C@H](O)C[C@H]4OC[C@@]4(OC(C)=O)[C@H]3[C@H](OC(=O)c3ccccc3)[C@](O)(C[C@@H]1OC(=O)[C@H](O)[C@@H](NC(=O)c1ccccc1)c1ccccc1)C2(C)C` [Example 16, 10-Desacetoxy-11,12-dihydro-7-epitaxol-10,12(18)-diene], the IC50 in assay [1] (HCT-116, 72 h) is 40 nM.
Take `CC(=O)O[C@H]1C(=O)[C@@]2(C)[C@H]([C@H](OC(=O)c3ccccc3)[C@]3(O)C[C@H](OC(=O)[C@H](O)[C@@H](NC(=O)c4ccccc4)c4ccccc4)C(C)=C1C3(C)C)[C@]1(OC(C)=O)CO[C@@H]1C[C@@H]2O` [Taxol]: the IC50 is 440 nM in assay [2] (HCT-116/VM46, 72 h) and 4 nM in assay [1] (HCT-116, 72 h). Also, the “fold resistance relative to HCT116 cells” value in assay [2] (human, hct-116/vm46 cells) came out at 124 fold. For the same compound, in assay [3], the “antitumor activity in in vivo animal models” value was “excellent antitumor activity”.
